Data taken from US12612424B2, “HPK1 inhibitors and uses thereof” (Regor Pharmaceuticals, Inc., priority 2019, dated 2026).

Test system: Human Pan T Cell (IL-2 release)
Assay: IL2 released by human pan T cell upon anti-CD3/anti-CD28 stimulation (ELISA)
Format: cell-based
Conditions: human pan T cells; for maximal fold induction / EC (2-fold response) / EC50: Homo sapiens, T-cell; for maximal fold induction / EC (2-fold response): 48 h; for maximal fold induction: response of IL-2 over DMSO control, anti-CD3/anti-CD28, 48 hours, ELISA, read-out: IL-2 Max Fold Response; for EC50: IL-2 response, calculated with GraphPad Prism
In short: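 Primary human pan-T cells, negatively isolated from PBMC, plated at 100,000 cells/well and stimulated with immobilized anti-CD3 plus soluble anti-CD28 in presence of test compound at varying concentrations. After 2 days, secreted IL-2 in supernatant quantified by ELISA.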

[1] = concentration of compound that gives 200% IL-2 response (2 folds) over DMSO control

Compound	maximal fold induction	EC (2-fold response) [1] [µM]	EC50 [nM]	EC2x (nM) [1]
COc1cc2c(cc1Nc1ncc(Cl)c(-n3cc(P(C)(C)=O)c4ccccc43)n1)CN(C)CC2 [Example 1, (1-(5-Chloro-2-((6-methoxy-2-methyl-1,2,3,4-tetrahydroisoquinolin-7-yl)amino)pyrimidin-4-yl)-1H-indol-3-yl)dimethylphosphine oxide]	< 2			
COc1nc2c(cc1Nc1ncc(Cl)c(N3CCc4ccccc43)n1)CN(C)CC2 [Example 19, N-(5-chloro-4-(indolin-1-yl)pyrimidin-2-yl)-2-methoxy-6-methyl-5,6,7,8-tetrahydro-1,6-naphthyridin-3-amine]	> 2	0.1 to 0.5	100 to 500	
COc1cc2c(cc1Nc1ncc(Cl)c(N3CCc4cc(F)ccc43)n1)CN(C)CC2 [Example 20, N-(5-chloro-4-(5-fluoroindolin-1-yl)pyrimidin-2-yl)-6-methoxy-2-methyl-1,2,3,4-tetrahydroisoquinolin-7-amine]	> 2	0.1 to 0.5	100 to 500	
COc1cc2c(cc1Nc1ncc(Cl)c(N3CCc4ccc(F)cc43)n1)CN(C)CC2 [Example 21, N-(5-chloro-4-(6-fluoroindolin-1-yl)pyrimidin-2-yl)-6-methoxy-2-methyl-1,2,3,4-tetrahydroisoquinolin-7-amine]	> 2	0.1 to 0.5	100 to 500	
COc1cc2c(cc1Nc1ncc(Cl)c(N3CCc4ccccc43)n1)CN(C(C)C)CC2 [Example 22, N-(5-chloro-4-(indolin-1-yl)pyrimidin-2-yl)-2-isopropyl-6-methoxy-1,2,3,4-tetrahydroisoquinolin-7-amine]	> 2	0.1 to 0.5	500 to 1000	
COc1cc2c(cc1Nc1ncc(Cl)c(N3CCc4ccccc43)n1)CNCC2 [Example 23, N-(5-chloro-4-(indolin-1-yl)pyrimidin-2-yl)-6-methoxy-1,2,3,4-tetrahydroisoquinolin-7-amine]	< 2		100 to 500	
COc1cc2c(cc1Nc1ncc(Cl)c(-n3ncc4ccccc43)n1)CN(C)CC2 [Example 24, N-(5-Chloro-4-(1H-indazol-1-yl)pyrimidin-2-yl)-6-methoxy-2-methyl-1,2,3,4-tetrahydroisoquinolin-7-amine]	< 2		500 to 1000	
COc1cc2c(cc1Nc1ncc(Cl)c(N3CC(C)(C)c4ccccc43)n1)CN(C)CC2 [Example 25, N-(5-Chloro-4-(3,3-dimethylindolin-1-yl)pyrimidin-2-yl)-6-methoxy-2-methyl-1,2,3,4-tetrahydroisoquinolin-7-amine]	> 2	0.1 to 0.5	500 to 1000	
COc1nc2c(cc1Nc1ncc(Cl)c(N3CCc4ncccc43)n1)CN(C)CC2 [Example 29, N-(5-Chloro-4-(2,3-dihydro-1H-pyrrolo[3,2-b]pyridin-1-yl)pyrimidin-2-yl)-2-methoxy-6-methyl-5,6,7,8-tetrahydro-1,6-naphthyridin-3-amine]	< 2		500 to 1000	
COc1cc2c(cc1Nc1ncc(Cl)c(N3CC(C(=O)O)c4ccccc43)n1)CN(C)CC2 (stereo not drawn) [Example 32, 1-(5-Chloro-2-((6-methoxy-2-methyl-1,2,3,4-tetrahydroisoquinolin-7-yl)amino)pyrimidin-4-yl)indoline-3-carboxylic acid]	> 2	0.1 to 0.5	100 to 500	
COc1cc2c(cc1Nc1ncc(Cl)c(N3CC(C(N)=O)c4ccccc43)n1)CN(C)CC2 (stereo not drawn) [Example 33, 1-(5-Chloro-2-((6-methoxy-2-methyl-1,2,3,4-tetrahydroisoquinolin-7-yl)amino)pyrimidin-4-yl)indoline-3-carboxamide]	< 2			
COc1cc2c(cc1Nc1ncc(Cl)c(-n3cc(C(N)=O)c4ccccc43)n1)CN(C)CC2 [Example 34]	< 2			
COc1cc2c(cc1Nc1ncc(Cl)c(-n3cc(C(=O)O)c4ccccc43)n1)CN(C)CC2 [Example 35]	> 2		500 to 1000	+ (“+”, for greater than 1 μM)
COc1cc2c(cc1Nc1ncc3ccn(-c4ccccc4)c3n1)CN(C)CC2 [Example 36, 6-methoxy-2-methyl-N-(7-phenyl-7H-pyrrolo[2,3-d]pyrimidin-2-yl)-1,2,3,4-tetrahydroisoquinolin-7-amine]	< 2			
COc1cc2c(cc1Nc1ncc3ccn(-c4ccccn4)c3n1)CN(C)CC2 [Example 37, 6-Methoxy-2-methyl-N-(7-(pyridin-2-yl)-7H-pyrrolo[2,3-d]pyrimidin-2-yl)-1,2,3,4-tetrahydroisoquinolin-7-amine]	< 2		100 to 500	
